According to patent publication US9439430B2, “Method of controlling resistant harmful plants” (priority 2012, dated 2016):

Test system: AMATA
Experiment: Greenhouse test, pre-emergence (PE) soil application
Assay type: in vivo, Amaranthus rudis
Conditions: group (B) compound alone, 20 g of AS/ha
Excerpt: The 1:1 mixture of the two soil types was used specifically for cultivating small-seeded dicotyledonous weed since the standard field soil on its own tends to silt up, which may have an adverse effect on the emergence of small-seeded weeds. The resistances mentioned in the tables were confirmed beforehand in standard monitoring experiments. Nevertheless, the origins examined may have additional, hitherto unconfirmed resistances to various mechanisms of action.
The pots were then cultivated in a greenhouse (12-16 h light, temperature day 20-22° C., night 15-18° C.) until the time of application. The pots were treated at various BBCH stages of the seeds/plants on a laboratory track sprayer with spray liquors comprising the compositions according to the invention, mixtures of the prior art or the individual components. Application of the active compounds or active compound combinations and wetting agents formulated as WG, WP, EC or otherwise was carried out at the appropriate growth stages of the plants. The amount of water used for spray application was 100-600 l/ha. After the treatment, the plants were returned to the greenhouses and fertilized and watered as required. The pots were cultivated in a greenhouse (12-16 h light, temperature day 20-22° C., night 15-18° C.).
3 weeks after the application, the foliar effect was evaluated on a scale of 0-100%:
0%=no noticeable effect compared to untreated plants
100%=full effect compared to untreated plants
The following abbreviations were used: • BBCH the BBCH code provides information about the morphological development stage of a plant. Officially, the abbreviation denotes the Biologische Bundesanstalt, Bundessortenamt and CHemische Industrie [Federal Biological Institute for Agriculture and Forestry, Federal Office for Crop Plant Varieties, Chemical Industry]. The range of BBCH 00-10 denotes the germination stages of the seeds until surface penetration. […]

**Q.** How did the “effect on AMATA resistant - group B (TSR), C1 (TSR)” value (“effect on AMATA resistant - group B” below) turn out when COc1cc(OC)nc(NC(=O)NS(=O)(=O)c2ncccc2C(F)(F)F)n1 [(B1), flazasulfuron] was run?
**A.** Its value is 60.

**Q.** For COc1cc(OC)nc(NC(=O)NS(=O)(=O)c2cc(NC=O)ccc2C(=O)N(C)C)n1 [(B2), foramsulfuron], which “effect on AMATA resistant - group B” value is on record?
**A.** Its value is 40.

**Q.** How did the “effect on AMATA resistant - group B” value turn out when CCS(=O)(=O)c1cccnc1S(=O)(=O)NC(=O)Nc1nc(OC)cc(OC)n1 [(B3), rimsulfuron] was run?
**A.** The value was 60.
